Experimental data reported in ChEMBL document CHEMBL3044730, “Synthesis, antimycobacterial, antiviral, antimicrobial activities, and QSAR studies of nicotinic acid benzylidene hydrazide derivatives” (Med Chem Res, 2012).
≈ marks a conversion by molar mass, not a printed value.

Assays:
Punta Toro virus = assay: Antiviral activity against Punta Toro virus infected Vero cells assessed as inhibition of virus-induced cytopathicity; assay type: functional, organism-based
[1] = test system: Vesicular stomatitis virus; assay: Antiviral activity against Vesicular stomatitis virus infected human HeLa cells assessed as inhibition of virus-induced cytopathicity by microscopy; assay type: functional, organism-based
[2] = test system: Mammalian orthoreovirus 1; assay: Antiviral activity against Mammalian orthoreovirus 1 infected Vero cells assessed as inhibition of virus-induced cytopathicity by microscopy; assay type: functional, organism-based; conditions: Mammalian orthoreovirus 1, Vero
Human alphaherpesvirus 2 = assay: Antiviral activity against Human herpesvirus 2 strain G infected human HEL cells assessed as inhibition of virus-induced cytopathicity by microscopy; assay type: functional, organism-based; conditions: Human alphaherpesvirus 2, strain G
Sindbis virus = assay: Antiviral activity against Sindbis virus infected Vero cells assessed as inhibition of virus-induced cytopathicity; assay type: functional, organism-based
Human alphaherpesvirus 1 [3] = assay: Antiviral activity against Human herpesvirus 1 strain KOS infected in human HEL cells assessed as inhibition of virus-induced cytopathicity by microscopy by microscopy; assay type: functional, organism-based; conditions: Human alphaherpesvirus 1, KOS
Staphylococcus aureus = assay: Antimicrobial activity against Staphylococcus aureus after 24 hr by serial dilution method; assay type: functional; set-up: unit not given here
Vaccinia virus = assay: Antiviral activity against Vaccinia virus infected human HEL cells assessed as inhibition of virus-induced cytopathicity by microscopy; assay type: functional, organism-based; conditions: Orthopoxvirus vaccinia
[4] = test system: Respiratory syncytial virus; assay: Antiviral activity against Respiratory syncytial virus infected human HeLa cells assessed as inhibition of virus-induced cytopathicity by microscopy; assay type: functional, organism-based
[5] = Cytotoxicity against Homo sapiens (human) MT4 cells after 4 days by MTT assay; assay type: cell-based
[6] = test system: Mycobacterium tuberculosis; assay: Antimicrobial activity against Mycobacterium tuberculosis by agar dilution method; assay type: functional
[7] = Cytotoxicity against Homo sapiens (human) HEL cells assessed as alteration in cell morphology by microscopy; assay type: cell-based
Coxsackievirus B4 [8] = assay: Antiviral activity against Human coxsackievirus B4 infected human HeLa cells assessed as inhibition of virus-induced cytopathicity by microscopy; assay type: functional, organism-based; conditions: Enterovirus B
[9] = Cytotoxicity against Homo sapiens (human) HeLa cells assessed as alteration in cell morphology by microscopy; assay type: cell-based
Escherichia coli = assay: Antimicrobial activity against Escherichia coli after 24 hr by serial dilution method; assay type: functional; set-up: unit not given here
Candida albicans [10] = assay: Antimicrobial activity against Candida albicans after 7 days by serial dilution method; assay type: functional; set-up: unit not given here
Candida albicans [11] = assay: Antimicrobial activity against Candida albicans after 2 days by serial dilution method; assay type: functional; set-up: unit not given here
[12] = test system: Human immunodeficiency virus 1; assay: Antiviral activity against Human immunodeficiency virus 1 IIIB infected MT4 cells assessed as inhibition of virus-induced cytopathic effect after 4 days by MTT assay; assay type: functional, organism-based; conditions: MT4, 96 h
[13] = test system: Human immunodeficiency virus 2; assay: Antiviral activity against Human immunodeficiency virus type 2 (ISOLATE ROD) infected MT4 cells assessed as inhibition of virus-induced cytopathic effect after 4 days by MTT assay; assay type: functional, organism-based; conditions: Human immunodeficiency virus 2, ISOLATE ROD, MT4, 96 h
Bacillus subtilis = assay: Antimicrobial activity against Bacillus subtilis after 24 hr by serial dilution method; assay type: functional; set-up: unit not given here
Coxsackievirus B4 [14] = assay: Antiviral activity against Human coxsackievirus B4 infected Vero cells assessed as inhibition of virus-induced cytopathicity; assay type: functional, organism-based; conditions: Enterovirus B
Human alphaherpesvirus 1 [15] = assay: Antiviral activity against TK(-) aciclovir-resistant Human herpesvirus 1 strain KOS infected in human HEL cells assessed as inhibition of virus-induced cytopathicity; assay type: functional, organism-based; conditions: Human alphaherpesvirus 1, KOS
[16] = test system: Human herpesvirus 3 strain Oka vaccine; assay: Antiviral activity against Human herpesvirus 3 strain Oka vaccine OKA 07-1 (Varicella zoster virus) infected in human HEL cells assessed as inhibition of virus-induced cytopathicity; assay type: functional, organism-based; conditions: Human alphaherpesvirus 3, OKA 07-1, HEL
[17] = Cytotoxicity against Chlorocebus aethiops (African green monkey) Vero cells assessed as alteration in cell morphology by microscopy; assay type: cell-based; conditions: chlorocebus sabaeus
[18] = test system: Human herpesvirus 5 strain AD169; assay: Antiviral activity against Human herpesvirus 5 strain AD169 Davis infected human HEL cells assessed as inhibition of virus-induced cytopathicity by microscopy; assay type: functional, organism-based; conditions: Human betaherpesvirus 5, Davis
Human respirovirus 3 = assay: Antiviral activity against Human parainfluenza virus 3 infected Vero cells assessed as inhibition of virus-induced cytopathicity by microscopy; assay type: functional, organism-based; conditions: Human respirovirus 3, Vero

Row | SMILES | EC50 (Punta Toro virus) | EC50 [1] | EC50 [2] | EC50 (Human alphaherpesvirus 2) | EC50 (Sindbis virus) | EC50 (Human alphaherpesvirus 1 [3]) | -logMIC (Staphylococcus aureus) | EC50 (Vaccinia virus) | EC50 [4] | CC50 at 96 h [5] | MIC [6] | CC50 [7] | MCC [7] | EC50 (Coxsackievirus B4 [8]) | MCC [9] | -logMIC (Escherichia coli) | -logMIC (Candida albicans [10]) | -logMIC (Candida albicans [11]) | EC50 [12] | EC50 [13] | also measured
1 | COc1ccc(/C=N/NC(=O)c2cccnc2)cc1 | > 100 µg/mL | > 100 µg/mL | > 100 µg/mL | > 100 µg/mL | > 100 µg/mL | > 100 µg/mL | 1.31 | > 100 µg/mL | > 100 µg/mL | 99 µg/mL (≈ 388 µM) | > 25 µg/mL | > 100 µg/mL | > 100 µg/mL | > 100 µg/mL | > 100 µg/mL | 1.31 | 1.61 | 1.31 | > 99 µg/mL | > 99 µg/mL | -logMIC (Bacillus subtilis): 1.31; EC50 (Coxsackievirus B4 [14]): > 100 µg/mL; EC50 (Human alphaherpesvirus 1 [15]): > 100 µg/mL; EC50 [16]: > 100 µg/mL; MCC [17]: > 100 µg/mL; EC50 [18]: > 100 µg/mL; EC50 (Human respirovirus 3): > 100 µg/mL
2 | O=C(N/N=C/c1ccccc1[N+](=O)[O-])c1cccnc1 | > 100 µg/mL | > 100 µg/mL | > 100 µg/mL | > 100 µg/mL | > 100 µg/mL | > 100 µg/mL | 1.33 | > 100 µg/mL | > 100 µg/mL | 68 µg/mL (≈ 252 µM) | > 25 µg/mL | 46 µg/mL (≈ 170 µM) | > 100 µg/mL | > 100 µg/mL | > 100 µg/mL | 1.33 | 1.94 | 1.33 | > 68 µg/mL | > 68 µg/mL | -logMIC (Bacillus subtilis): 1.94; EC50 (Coxsackievirus B4 [14]): > 100 µg/mL; EC50 (Human alphaherpesvirus 1 [15]): > 100 µg/mL; EC50 [16]: > 100 µg/mL; MCC [17]: > 100 µg/mL; EC50 [18]: > 100 µg/mL; EC50 (Human respirovirus 3): > 100 µg/mL
3 | O=C(N/N=C/c1cccc([N+](=O)[O-])c1)c1cccnc1 | > 100 µg/mL | > 4 µg/mL | > 100 µg/mL | > 100 µg/mL | > 100 µg/mL | > 100 µg/mL | 1.33 | > 100 µg/mL | > 4 µg/mL | 54 µg/mL (≈ 200 µM) | > 25 µg/mL | 13 µg/mL (≈ 48.1 µM) | > 100 µg/mL | > 4 µg/mL | 20 µg/mL | 1.94 | 1.64 | 1.33 | > 54 µg/mL | > 54 µg/mL | -logMIC (Bacillus subtilis): 1.64; EC50 (Coxsackievirus B4 [14]): > 100 µg/mL; EC50 (Human alphaherpesvirus 1 [15]): > 100 µg/mL; EC50 [16]: > 100 µg/mL; MCC [17]: ≥ 100 µg/mL; EC50 [18]: > 20 µg/mL; EC50 (Human respirovirus 3): > 100 µg/mL
4 | O=C(N/N=C/c1ccc([N+](=O)[O-])cc1)c1cccnc1 | > 0.8 µg/mL | > 0.16 µg/mL | > 0.8 µg/mL | > 0.8 µg/mL | > 0.8 µg/mL | > 0.8 µg/mL | 1.03 | > 0.8 µg/mL | > 0.16 µg/mL | 0.1 µg/mL (≈ 0.37 µM) | > 25 µg/mL | < 0.16 µg/mL | ≥ 0.8 µg/mL | > 0.16 µg/mL | 0.8 µg/mL | 1.94 | 1.33 | 1.33 | > 0.1 µg/mL | > 0.1 µg/mL | -logMIC (Bacillus subtilis): 1.33; EC50 (Coxsackievirus B4 [14]): > 0.8 µg/mL; EC50 (Human alphaherpesvirus 1 [15]): > 0.8 µg/mL; EC50 [16]: > 0.16 µg/mL; MCC [17]: ≥ 0.8 µg/mL; EC50 [18]: > 0.16 µg/mL; EC50 (Human respirovirus 3): > 0.8 µg/mL
